Measurements reported in US20150037269A1, “TOPICAL COMPOSITIONS FOR TREATMENT OF EXCESSIVE SWEATING AND METHODS OF USE THEREOF” (GlaxoSmithKline Intellectual Property Development Limited, priority 2013, published 2015).

Columns and labels:
[1] = Irritation potential of topical solution; conditions: solution comprising 2.2% w/w
[2] = MALDI imaging of distribution in skin layers; type: in vitro ADME, human; conditions: twenty-four hours after single finite topical dose
Source text: Matrix-assisted laser desorption/ionization (MALDI) has emerged as a powerful and diverse technology for analyzing the spatial distribution of endogenous and exogenous compounds directly from a tissue section. [See Seeley E H, Caprioli R M. MALDI imaging mass spectrometry of human tissue: method challenges and clinical perspectives. Trends Biotechnol. 29(3), 136-143 (2011); and Svatos A. Mass spectrometric imaging of small molecules. Trends Biotechnol. 28(8), 425-434 (2010)]. […] Anal Bioanal Chem. (2013); 405(4):1159-70]. MALDI imaging in human skin tissue sections: focus on various matrices and enzymes.

[3] = Clinical study: single radiolabelled topical dose to axilla or palm of healthy male subjects; type: in vivo, human; conditions: for Cmax: male, human, plasma, topical, 3.05 mg
Method: Up to four cohorts were to be enrolled (Cohort A: unoccluded axilla; Cohort B: occluded axilla; Cohort C: unoccluded palm; Cohort D: occluded palm). Six subjects were to be dosed in each cohort and complete the study procedures.
On the day of dosing, subjects will receive the study drug applied to the axilla or palm. Each subject will only receive a single dose of study drug which will be applied to the test site and remain on the application site for 8 hours. Serial blood samples will be collected throughout treatment. An interim analysis using simulations will be conducted after each cohort to determine the likelihood of exceeding the safety cover for Cmax or AUC and the likelihood of obtaining quantifiable concentrations sufficient to determine the half-life in the subsequent cohorts.

[4] = Population pharmacokinetic model (IV plus dermal occluded axilla data); type: in vivo, human
Source text: Of the drug that was available systemically, 9.70% (66.7%) was absorbed through a zero order process.

[5] = cited from earlier work
[6] = PopPK, IV and dermal occluded axilla

OC(c1ccccc1)(c1ccccc1)C12CC[N+](CCOCc3ccccc3)(CC1)CC2 [umeclidinium bromide]
irritation potential [1]: low irritation potential

OC(c1ccccc1)(c1ccccc1)C12CC[N+](CCOCc3ccccc3)(CC1)CC2 [umeclidinium, 4-[hydroxy(diphenyl)methyl]-1-{2-[(phenylmethyl)oxy]ethyl}-1-azoniabicyclo[2.2.2]octane]
qualitative distribution in skin layers [2]: penetrated to the deeper sections of the dermis and accumulated in the area where the sweat glands are present | Cmax ([3]; occluded axilla (Cohort B), CV 122%): 7.92 pg/mL | Cmax ([3]; unoccluded axilla (Cohort A), CV 144%): 2.33 pg/mL | samples quantifiable up to ([3]; occluded axilla (Cohort B), post dose): 16 to 72 h | mean percent dose recovered from the skin surface ([3]; occluded axilla (Cohort B), range 69.2%-81.7%): 75.4% | median time to maximum concentration ([3]; occluded axilla (Cohort B), range 2 h-24 h): 13 h | plasma concentrations ([3]; occluded palm (Cohort D)): no quantifiable plasma concentrations | mean percent dose recovered from the skin surface ([3]; occluded palm (Cohort D), range 45.6%-59.9%): 52.5% | mean percent dose recovered from the skin surface ([3]; unoccluded axilla (Cohort A), end of 8 hour application, range 77.7-84.1%): 80.6% | quantifiable plasma concentrations up to ([3]; unoccluded axilla (Cohort A), one subject, post-dose): up to 72 hours | median time to maximum plasma concentration ([3]; unoccluded axilla (Cohort A), range 12 h-30 h): 13 h | CL2 Intercompartmental Clearance, Mean (RSE %) [4, 6]: 39376 (26.0%) mL/h | CL Elimination clearance, Mean (RSE %) [4, 6]: 45241 (23.6%) mL/h | F1 Fraction of the bioavailable drug absorbed through a zero order process, Mean (RSE %) [4, 6]: 0.097 (66.7%) | Ka First order absorption rate constant, Mean (RSE %) [4, 6]: 0.094 (54.1%) | Tlag Lag time for the first order absorption process, Mean (RSE %) [4, 6]: 8.61 (15.3%) hr | V1 Volume of central compartment, Mean (RSE %) [4, 6]: 7726 (17.6%) mL | V2 Volume of peripheral compartment, Mean (RSE %) [4, 6]: 261058 (57.3%) mL | F Absolute plasma bioavailability following administration to occluded axilla, Mean (RSE %) ([4]; PopPK, fraction): 0.0019 (55.3%) | bioavailability ([4]; human, plasma, topical, 3.05 mg, occluded axilla, RSE 55.3%, read-out: estimated absolute plasma bioavailability): 0.19% | share of systemically available drug absorbed through a zero order process ([4]; occluded axilla, RSE 66.7%): 9.70% | tolerability in thorough QT study ([5]; 0.5 mg inhaled once daily for 10 days): well tolerated | tolerability in clinical development program ([5]; oral, intravenous and oral inhalation routes): well tolerated
